Results on two compounds are retold here after patent US6861432B2, “Piperazine derivatives that destabilize androgen receptors” (Schering Aktiengesellschaft, priority 2001, dated 2005).

In one test the test system is CWR22 prostate cancers. The test is described as follows: Model 5: Growth of human prostate cancer xenografts in vivo, CWR22. The settings on record: hairless mice with testosterone pellets, 2 × daily s.c. 30 mg/kg, FIG. 2. From the text:
(§1) In this invention, the action of Example 117 according to the invention: 4-[2,5-dihydro-3-methyl-4-[4-[4-(methylsulfonyl)piperazin-1-yl]butyl]-2,5-dioxo-1H-pyrrol-1-yl]-2-(trifluoromethyl)benzonitrile on the tumor growth in vivo was studied by means of mouse-xenograft modules, in which the compound according to the invention was continuously administered subcutaneously.
(§2) The CWR22 tumor model [M. A. Wainstein, F. He, D. Robinson, H. J. Kung, S. Schwartz, J. M. Giaconia, N. L. Edgehouse, T. P. Pretlow, D. R. Bodner, E. D. Kursh, Cancer Res. 1994, 1; 54(23), 6049-52] is a hormone-dependent human prostate carcinoma model. The tumor model was established and further propagated by “scrial passaging” of prostate cancer tissue, which was removed during an OP in immunodeficient hairless mice. The androgen-dependent LNCaP prostate cancer model was also established from a patient tumor. This tumor model grows both in cell culture and as a xenotransplant on immunodeficient mice (Culig, Hoffman Brit. J. Cancer, 1999, 242-251). For therapy tests, 6-week-old male hairless mice (NMRI mice, M&B, Bornholdtgard, Denmark) were supplemented with testosterone pellets (12.5 mg, 90-day release; IRA, Sarasota, Fla.). Either LNCaP cells (1.5×10^6 cells) or small CWR22 tumor fragments (2×2 mm) were implanted subcutaneously in the left flank of the animals. After the tumors reached a size of 20-25 mm^2, the treatment with the invention substance was begun. [M. A. Wainstein, F. He, D. Robinson, H. J. Kung, S. Schwartz, J. M. Giaconia, N. L. Edgehouse, T. P. Pretlow, D. R. Bodner, E. D. Kursch, Cancer Res. 1994, 1; 54(23), 6049-52].
(In general: In xenograft studies the graft and the host belong to different species.)

The subject of a further test is A431 cells. Kind of test: Model 3: Proliferation of non-prostate cells, A431. The class given is cell-based, human. The settings on record: 10 μM, 3-day treatment, percent of cell growth of solvent control. The procedure:
(§3) To examine the growth-inhibiting action of test substances in cells that are not of prostatic origin, MaTu cells, MaTu/Adr cells, HaCaT cells and A431 cells were treated with test substances, whereby
(§4) Depending on the cell line, 1000-4000 cells/well were grown in RPMI 1640 medium (A431; MaTu and MaTu/Adr) or DMEM/HAM'SF12 medium (HaCaT) without phenol red with 2 mmol of L-glutamine and 10% CCS, and after a 24-hour incubation, they were treated with various concentrations of test substances diluted in culture medium. After a 3-day treatment period, the number of cells was determined by crystal violet assay, as in Model 2. The solvent control contained 0.1% ethanol.
(§5) The substances were tested at a concentration of 10 μM, and the data correspond to the proportion, in percent, of the cell growth of the solvent control. It turns out that the test substances exerted no inhibitory action on the four different cell lines or, in individual cases, only a slight inhibitory action.

The test system of a further test is LNCaP cells. Kind of test: Model 2: Inhibition of the proliferation of LNCaP cells (crystal violet assay; antagonism with 0.1 nM R1881, agonism without). In kind it is cell-based, human.
The next test concerns LNCaP prostate cancers. The test is described as follows: Model 5: Growth of human prostate cancer xenografts in vivo, LNCaP. The settings on record: hairless mice with testosterone pellets, 2 × daily s.c. 30 mg/kg, FIG. 1.
Description: as §1, §2

The test system of a further test is seminal vesicles. Kind of test: Model 4: Antiandrogenic action on testosterone-stimulated growth of accessory sexual glands of castrated mice. The settings on record: testosterone propionate 0.03 mg/mouse, test substance 2 × 30 mg/kg s.c., 7 days, CPA 30 mg/kg s.c., bicalutamide from preceding tests. In kind it is in vivo. The procedure: The function and the size of accessory sexual glands (prostate and seminal vesicles) depend on androgens. In castrated animals, a growth of these (organs is induced by androgen administration. The simultaneous treatment with antiandrogens inhibits this growth, depending on the dose.
To examine the test substances, the mice were castrated. The treatment with testosterone propionate (0.03 mg/mouse) and the test substances (formulated 2×daily 30 mg/kg s.c. in benzyl benzoate-castor oil (10:90)) was on the same day. The treatment was carried out over 7 days and at the end of the test, the weights of the seminal vesicles and prostates were determined. The inhibition, in percent, of the seminal vesicle growth was calculated relative to the control groups (with and without testosterone). As a reference substance, cyproterone acetate (30 mg/kg s.c.) was used.

The test system of another test is HaCaT cells. Kind of test: Model 3: Proliferation of non-prostate cells, HaCaT. In kind it is cell-based, human. The settings on record: 10 μM, 3-day treatment, percent of cell growth of solvent control. How it is done: as §3, §4, §5
A further test concerns MaTu/Adr cells. The test is described as follows: Model 3: Proliferation of non-prostate cells, MaTu/Adr. The settings on record: 10 μM, 3-day treatment, percent of cell growth of solvent control. The class given is cell-based, human. The procedure:
as §3, §4, §5

A further test relates to MaTu cells. The test is described as follows: Model 3: Proliferation of non-prostate cells, MaTu. The settings on record: 10 μM, 3-day treatment; percent of cell growth of solvent control. The class given is cell-based, human. How it is done:
as §3, §4, §5

Another test addresses T1, androgen receptor (Homo sapiens, UniProt P10275, T878A).
T1 construct: 2*10^6 LNCaP cells in 6 ml of RPMI 1640 without phenol red are grown; endogenous in cells; host or cells: LNCaP (human prostate cell line)
T1 sequence (P10275 1-920 T878A): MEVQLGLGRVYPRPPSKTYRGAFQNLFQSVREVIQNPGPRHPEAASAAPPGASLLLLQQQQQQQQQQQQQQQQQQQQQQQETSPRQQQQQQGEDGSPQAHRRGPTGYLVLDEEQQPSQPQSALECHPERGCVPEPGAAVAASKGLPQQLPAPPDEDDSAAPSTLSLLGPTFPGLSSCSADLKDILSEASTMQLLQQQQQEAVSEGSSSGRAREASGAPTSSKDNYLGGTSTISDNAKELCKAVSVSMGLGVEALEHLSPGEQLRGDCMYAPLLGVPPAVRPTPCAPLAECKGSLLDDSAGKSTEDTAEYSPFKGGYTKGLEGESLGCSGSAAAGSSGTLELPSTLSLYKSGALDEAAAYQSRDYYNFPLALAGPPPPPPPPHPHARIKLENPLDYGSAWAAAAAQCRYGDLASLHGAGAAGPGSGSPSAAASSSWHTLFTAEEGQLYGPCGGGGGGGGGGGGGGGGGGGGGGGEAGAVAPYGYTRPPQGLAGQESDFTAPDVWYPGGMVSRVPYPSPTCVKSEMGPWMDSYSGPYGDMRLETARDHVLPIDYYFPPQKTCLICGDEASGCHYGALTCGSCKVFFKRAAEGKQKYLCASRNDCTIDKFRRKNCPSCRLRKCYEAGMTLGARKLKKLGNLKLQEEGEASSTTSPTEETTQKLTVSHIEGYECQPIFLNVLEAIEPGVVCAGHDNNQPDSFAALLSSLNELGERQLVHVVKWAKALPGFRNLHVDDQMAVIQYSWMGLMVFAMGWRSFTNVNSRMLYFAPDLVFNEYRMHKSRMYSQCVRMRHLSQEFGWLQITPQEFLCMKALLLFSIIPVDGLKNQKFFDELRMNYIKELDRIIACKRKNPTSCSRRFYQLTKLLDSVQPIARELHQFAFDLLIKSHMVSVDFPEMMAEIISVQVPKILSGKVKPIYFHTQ
The test is described as follows: cell-based. The settings on record: LNCaP, 48 h.

Setting [1] is: listed as invention substance, 30 mg/kg.
Where [2] appears, read: listed as substance B, 30 mg/kg.

What is called inhibition is the percentage by which the read-out fell short of the control. In general, IC50 refers to the point on the concentration scale where inhibition reaches its midpoint. A word on the % Inhibition: it is how much of the control response was suppressed. In the case of `CC(O)(CS(=O)(=O)c1ccc(F)cc1)C(=O)Nc1ccc(C#N)c(C(F)(F)F)c1` (centres unmarked) [Bicalutamide, N-[4-cyano-3-(trifluoromethyl)phenyl]-3-[(4-fluorophenyl)sulfonyl]-2-hydroxy-2-methylpropanamide, reference compound], in the test with CWR22 prostate cancers, the “growth inhibition of CWR22 prostate cancers” value is reported as “growth inhibition”. Also, the “Proliferation in the Cell Line A431” value is 89 ± 7% with A431 cells and “slight inhibition” in the test on A431 cells (listed as bicalutamide). Further, the inhibition at 1 µM with LNCaP cells (Homo sapiens, LNCaP, LNCaP proliferation, 1 μM substance, compared to cell growth in the presence of 0.1 nM R1881) was 85%. Further, the IC50 with LNCaP cells (Homo sapiens, LNCaP proliferation in the presence of 0.1 nM R1881, 7-8 days, read-out: IC50 [10^−7 M]) came to 380 nM. Besides, in the test on LNCaP cells (LNCaP proliferation, 1 μM substance, compared to cell growth in the presence of 0.1 nM R1881), the “% Inhibition at 1 μM” value amounted to 84.6%. Further, in the test on LNCaP prostate cancers, the “growth inhibition of LNCaP prostate cancers” value is “growth inhibition”. Besides, the “% Inhibition of the MSB Growth” value in the test on seminal vesicles worked out at 86%. The “Proliferation in the Cell Line HaCaT” value in the test with HaCaT cells is 92 ± 3%; in the test on HaCaT cells (listed as bicalutamide), “slight inhibition”. Further, the “Proliferation in the Cell Line MaTu/Adr” value in the test on MaTu/Adr cells is 84 ± 6%; in the test on MaTu/Adr cells (listed as bicalutamide), “slight inhibition”. Moreover, the “Proliferation in the Cell Line MaTu” value in the test with MaTu cells was determined as 97 ± 3%.
For `CC1=C(CCCCN2CCN(S(C)(=O)=O)CC2)C(=O)N(c2ccc(C#N)c(C(F)(F)F)c2)C1=O` [Example 117, 4-[2,5-Dihydro-3-methyl-4-[4-[4-(methylsulfonyl)piperazin-1-yl]butyl]-2,5-dioxo-1H-pyrrol-1-yl]-2-(trifluoromethyl)benzonitrile], the “growth inhibition of CWR22 prostate cancers” value was “considerable growth inhibition” with CWR22 prostate cancers (setting [1]) and “superior in comparison to treatment with the antiandrogen bicalutamide” in the test on CWR22 prostate cancers (setting [2]). In the test with A431 cells, the “Proliferation in the Cell Line A431” value is listed as 100 ± 5%. Further, the “growth inhibition of LNCaP prostate cancers” value with LNCaP prostate cancers (setting [1]) is on record as “considerable growth inhibition”; in the test with LNCaP prostate cancers (setting [2]), “superior in comparison to treatment with the antiandrogen bicalutamide”. For the same compound, in the test on HaCaT cells, the “Proliferation in the Cell Line HaCaT” value is 104 ± 6%. Further, the remaining activity at 1 µM at androgen receptor (read-out: AR Content [%] At 1 μM) came to 57%. The remaining activity at 10 µM at androgen receptor (read-out: AR Content [%] At 10 μM) amounted to 36%. Moreover, the “Proliferation in the Cell Line MaTu/Adr” value with MaTu/Adr cells is 94 ± 4%. Besides, the “Proliferation in the Cell Line MaTu” value in the test with MaTu cells is listed as 103 ± 10%.
